{"source": "patent US20050123912A1", "about": "“Nucleic-acid associated proteins” (priority 2002, published 2005)", "key": {"[1]": {"details": "relative to progesterone; cited from earlier work"}, "[2]": {"test_system": "SEQ ID NO:64 expression in human C3A liver cells", "assay": "Microarray expression of SEQ ID NO:64 in C3A liver cell cultures treated with steroids", "format": "cell-based", "details": "early confluent human C3A liver cells, 1 μM, 10 μM, and 100 μM for 1, 3, and 6 hours, compared to untreated cells", "procedure": "Total RNA is isolated from tissue samples using the guanidinium thiocyanate method and poly(A)^+ RNA is purified using the oligo-(dT) cellulose method. Each poly(A)^+ RNA sample is reverse transcribed using MMLV reverse-transcriptase, 0.05 pg/μl oligo-(dT) primer (21mer), 1× first strand buffer, 0.03 units/μl RNase inhibitor, 500 μM dATP, 500 μM dGTP, 500 μM dTTP, 40 μM dCTP, 40 μM dCTP-Cy3 (BDS) or dCTP-Cy5 (Amersham Biosciences). The reverse transcription reaction is performed in a 25 ml volume containing 200 ng poly(A)^+ RNA with GEMBRIGHT kits (Incyte). Specific control poly(A)^+ RNAs are synthesized by in vitro transcription from non-coding yeast genomic DNA. After incubation at 37° C. for 2 hr, each reaction sample (one with Cy3 and another with Cy5 labeling) is treated with 2.5 ml of 0.5M sodium hydroxide and incubated for 20 minutes at 85° C. to the stop the reaction and degrade the RNA. Samples are purified using two successive CHROMA SPIN 30 gel filtration spin columns (Clontech, Palo Alto Calif.) and after combining, both reaction samples are ethanol precipitated using 1 ml of glycogen (1 mg/ml), 60 ml sodium acetate, and 300 ml of 100% ethanol. The sample is then dried to completion using a SpeedVAC (Savant Instruments Inc., Holbrook N.Y.) and resuspended in 14 μl 5×SSC/0.2% SDS.\nSequences of the present invention are used to generate array elements. Each array element is amplified from bacterial cells containing vectors with cloned cDNA inserts. PCR amplification uses primers complementary to the vector sequences flanking the cDNA insert. Array elements are amplified in thirty cycles of PCR from an initial quantity of 1-2 ng to a final quantity greater than 5 μg. Amplified array elements are then purified using [sequence]-400 (Amersham Biosciences). […]\nReporter-labeled hybridization complexes are detected with a microscope equipped with an Innova 70 mixed gas 10 W laser (Coherent, Inc., Santa Clara Calif.) capable of generating spectral lines at 488 nm for excitation of Cy3 and at 632 nm for excitation of Cy5. […]"}, "[3]": {"test_system": "SEQ ID NO:61 expression in human peripheral blood mononuclear cells (PBMCs)", "assay": "Microarray expression of SEQ ID NO:61 in PBMCs treated with acetaminophen", "format": "cell-based", "details": "human PBMCs treated with acetaminophen compared to untreated cells", "source_text": "Therefore, SEQ ID NO:61 is useful in disease staging and in diagnostic assays for immune disorders."}, "[4]": {"details": "intranasal; relative to hydrocortisone; cited from earlier work"}}}
{"compound": "6α-methyl-17-hydroxyprogesterone [medroxyprogesterone]", "values": [{"measurement": "pharmacological activity greater than progesterone", "setting": "[1]", "result": "about 15 times"}, {"measurement": "expression of SEQ ID NO:64", "setting": "[2]", "result": "decreased expression"}]}
{"compound": "CC(=O)Nc1ccc(O)cc1", "note": "[acetaminophen]", "values": [{"measurement": "decrease in expression of SEQ ID NO:61", "setting": "[3]", "result": "two-fold"}]}
{"compound": "C[C@H]1C[C@H]2[C@@H]3CCC4=CC(=O)C=C[C@]4(C)[C@@]3(Cl)[C@@H](O)C[C@]2(C)[C@@]1(O)C(=O)CO", "note": "[beclomethasone]", "values": [{"measurement": "anti-inflammatory and vasoconstrictive effects greater than those produced by hydrocortisone", "setting": "[4]", "result": 5000, "unit": "times"}, {"measurement": "expression of SEQ ID NO:64", "setting": "[2]", "result": "decreased expression"}]}
{"compound": "C[C@]12C=CC(=O)C=C1CC[C@@H]1[C@@H]2C(=O)C[C@@]2(C)[C@H]1CC[C@]2(O)C(=O)CO", "note": "[prednisone]", "values": [{"measurement": "expression of SEQ ID NO:64", "setting": "[2]", "result": "decreased expression"}]}
